Results from ChEMBL document CHEMBL2046360, “Hydrophobic Interactions Improve Selectivity to ERα for Ben-zothiophene SERMs” (ACS Med Chem Lett, 2012).
Active and inactive are the calls of the source. The rule behind the calls is not given here.

Columns and labels:
MCF7 = assay: Antiproliferative activity against human MCF7 cells after 48 hrs by [3H]-thymidine incorporation assay; assay type: functional, cell-based
Estrogen receptor beta = Estrogen receptor beta (Homo sapiens, UniProt Q92731); assay: Displacement of [3H]estradiol from ERbeta after 4 hrs by scintillation counting
Estrogen receptor beta, sequence (Q92731 whole entry): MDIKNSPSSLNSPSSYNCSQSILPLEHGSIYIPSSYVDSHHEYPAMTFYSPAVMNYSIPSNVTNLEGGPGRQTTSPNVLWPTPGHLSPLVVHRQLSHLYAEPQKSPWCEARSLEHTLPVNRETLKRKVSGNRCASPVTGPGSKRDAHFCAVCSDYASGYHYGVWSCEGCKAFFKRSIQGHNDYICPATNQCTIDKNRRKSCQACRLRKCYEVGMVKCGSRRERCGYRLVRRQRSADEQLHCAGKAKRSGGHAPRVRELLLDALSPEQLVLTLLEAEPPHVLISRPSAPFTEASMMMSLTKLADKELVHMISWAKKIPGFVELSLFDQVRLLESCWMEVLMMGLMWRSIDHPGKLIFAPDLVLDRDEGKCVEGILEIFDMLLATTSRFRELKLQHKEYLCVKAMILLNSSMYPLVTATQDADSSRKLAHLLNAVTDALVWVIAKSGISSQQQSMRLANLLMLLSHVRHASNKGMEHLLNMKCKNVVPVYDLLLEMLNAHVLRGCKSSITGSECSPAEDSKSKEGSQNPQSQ

[1] = Selectivity ratio of Ki for ERbeta to Ki for ERalpha
Estrogen receptor [2] = biological target: T1, Estrogen receptor (Homo sapiens, UniProt P03372); assay: Binding affinity to ERalpha ligand binding domain
T1 sequence (P03372 whole entry): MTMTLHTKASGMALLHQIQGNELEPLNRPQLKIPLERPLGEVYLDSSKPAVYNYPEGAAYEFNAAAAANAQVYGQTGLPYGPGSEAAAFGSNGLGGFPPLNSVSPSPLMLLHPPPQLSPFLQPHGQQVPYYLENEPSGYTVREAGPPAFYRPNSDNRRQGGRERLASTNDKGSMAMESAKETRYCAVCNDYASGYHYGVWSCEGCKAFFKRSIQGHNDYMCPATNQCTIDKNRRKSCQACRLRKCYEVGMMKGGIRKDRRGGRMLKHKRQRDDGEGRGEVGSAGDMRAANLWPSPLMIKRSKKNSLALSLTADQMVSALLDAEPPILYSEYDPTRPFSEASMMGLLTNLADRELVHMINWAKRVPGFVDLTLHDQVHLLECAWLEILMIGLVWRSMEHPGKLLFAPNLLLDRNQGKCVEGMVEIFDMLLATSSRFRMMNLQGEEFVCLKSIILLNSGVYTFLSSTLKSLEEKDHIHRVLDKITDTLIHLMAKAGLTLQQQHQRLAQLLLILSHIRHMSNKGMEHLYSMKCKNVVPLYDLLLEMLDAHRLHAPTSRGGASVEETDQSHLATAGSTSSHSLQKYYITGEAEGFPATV

Rattus norvegicus [3] = assay: AUC (0 to 24 hrs) in rat at 10 mg/kg, po; assay type: ADME, organism-based, Plasma; set-up: time < 24 hr, dose 10 mg/kg, route oral; details: in vivo
Rattus norvegicus [4] = assay: Antiestrogenic activity in young Sprague-Dawley rat assessed as inhibition of estrogen-induced uterine hypertrophy at 0.01 to 1 mg/kg, po for 3 days; assay type: functional, organism-based
[5] = Cmax in rat at 10 mg/kg, po; assay type: ADME, organism-based; set-up: dose 10 mg/kg, route oral; details: in vivo
Rattus norvegicus [6] = assay: […] Sprague-Dawley rat assessed as reduction of bone loss by measuring volumetric bone mineral density administered qd after 4 days post ovariectomy measured after 5 weeks; assay type: functional, organism-based
Estrogen receptor [7] = biological target: T1, Estrogen receptor; assay: Displacement of [3H]estradiol from ERalpha after 4 hrs by scintillation counting

## CCCCc1ccc(-c2sc3cc(O)ccc3c2C(=O)c2ccc(OCCN3CCCCC3)cc2)cc1
MCF7
  IC50: 33 nM
Estrogen receptor beta
  Ki: 35 nM
[1]
  Ratio Ki: 140
Estrogen receptor [2]
  Ki: 0.25 nM
Rattus norvegicus [3]
  AUC: 2337 ng·h/mL
Rattus norvegicus [4]
  inhibition: Active
[5]
  Cmax: 210 ng/mL
Rattus norvegicus [6]
  Activity: Dose-dependent effect
Estrogen receptor [7]
  Ki: 0.25 nM
